Reference: patent US20130034522A1, “THERAPIES FOR TREATING HEPATITIS C VIRUS INFECTION” (priority 2010, published 2013)
Converted amounts (≈) assume the structure as drawn.

What was measured:
[1] = PK of prodrugs of Compound 1 in rats; format: in vivo; details: oral gavage 3 mg/kg, plasma, FIG. 9
Protocol: The prodrugs whose PK parameters are to be determined can be formulated as a solution in 0.5% MC/0.5% Tween 80/99% water and administered orally by gavage to rats at a dose of 3 mg/kg. Rats are weighed the day before the study. Rat plasma is sampled predose and at 15, 30 min, 1, 2, 3, 4, 6, 8, 12 and 24 hrs post dose using Instech automatic blood sampling equipment. Blood is collected in tubes containing K2-EDTA and 110 uL plasma are extracted for analysis. Rats are fed ad lib and standard IACUC and SOP protocols are followed. Plasma samples and dose samples are analyzed using LC/MS/MS for both the prodrug compound and the active metabolite. PK parameters for both analytes for each subject are calculated using the measured dose of prodrug.

[2] = male, human, in vivo
Protocol: 25 healthy male volunteers were enrolled.
A dose escalation scheme was used that combined dose doubling and modified Fibonacci to be aggressive in the lower dose range and conservative in the higher dose range.
A pharmacokinetics analysis was performed using the statistical moment approach.

[3] = system: hepatitis C virus (HCV) replicon; assay: HCV replicon cell assay; format: cell-based; details: HCV RNA level, 48-hour incubation
Protocol: Cells containing hepatitis C virus (HCV) replicon were maintained in DMEM containing 10% fetal bovine serum (FBS), 0.25 mg per ml of G418, with appropriate supplements (media A).
On day 1, replicon cell monolayer was treated with a trypsin:EDTA mixture, removed, and then media A was diluted into a final concentration of 100,000 cells per ml with 10,000 cells in 100 μl were plated into each well of a 96-well tissue culture plate, and cultured overnight in a tissue culture incubator at 37° C.
On day 2, compounds (in 100% DMSO) were serially diluted into DMEM containing 2% FBS, 0.5% DMSO, with appropriate supplements (media B). The final concentration of DMSO was maintained at 0.5% throughout the dilution series.
Media on the replicon cell monolayer was removed, and then media B containing various concentrations of compounds was added. […]
A Taqman real-time RT-PCR quantification assay was set up with two sets of specific primers and probe. […] Total RNA extractants from treated HCV replicon cells was added to the PCR reactions for quantification of both HCV and BVDV RNA in the same PCR well. […] The level of HCV RNA in each well was calculated according to a standard curve run in the same PCR plate. The percentage of inhibition or decrease of HCV RNA level due to compound treatment was calculated using the DMSO or no compound control as 0% of inhibition. […]

[4] = system: HCV; details: monotherapy, patients; cited from earlier work

C[C@@H](N)C(=O)O[C@H]1CC[C@H](N(c2cc(C#CC(C)(C)C)sc2C(=O)O)C(=O)[C@H]2CC[C@H](C)CC2)CC1 [Compound H]
in vivo conversion of prodrug [1]: converted into the —OH active metabolite

CCC[C@H](NC(=O)[C@@H]1[C@H]2CCC[C@H]2CN1C(=O)[C@@H](NC(=O)[C@@H](NC(=O)c1cnccn1)C1CCCCC1)C(C)(C)C)C(=O)C(=O)NC1CC1 [VX-950]
eliminated unchanged in the urine [2]: Less than 2%
IC50 [3]: 0.24 µg/mL (≈ 0.353 µM)
IC90 [3]: 0.476 µg/mL (≈ 0.7 µM)

interferon alfa
long term remission, fraction of cases [4]: ~25%
